Results published in patent US10732173B2, “Use of aldehyde dehydrogenase as biomarker for beta-cell dysfunction and loss” (THE TRUSTEES OF COLUMBIA UNIVERSITY IN THE CITY OF NEW YORK, priority 2015, dated 2020).

Tested on: MIN6 cells overexpressing ALDH1A3
Assay: Glucose-stimulated insulin secretion in the presence of the ALDH inhibitor DEAB
Type: cell-based, mouse
Conditions: MIN6 cells overexpressing ALDH1A3, in the presence of DEAB (FIG. 12F)

CCN(CC)c1ccc(C=O)cc1 [DEAB, N,N-diethylaminobenzaldehyde]
effect on insulin secretion: did not detect an effect
